# Laboratory results: ChEMBL document CHEMBL3351364 (J Med Chem, 2014)
# Legend:
# [1] = Solubility of the compound in water at pH 4; assay type: physicochemical
# [2] = Solubility of the compound in water at pH 7.4; assay type: physicochemical
# [3] = Solubility of the compound in alcohol; assay type: physicochemical
# [4] = Solubility of the compound in dimethyl sulfoxide; assay type: physicochemical
# [5] = test system: West Nile virus; assay: Antiviral activity against West Nile virus NY99 infected in african green monkey Vero-76 cells after 3 days; assay type: functional, organism-based; details: NY99, Vero 76, 72 h
# [6] = Cytotoxicity against West Nile virus NY99 infected african green monkey Vero 76 cells after 3 days; assay type: cell-based; details: chlorocebus sabaeus, Vero 76 cells infected with West Nile virus NY99
# [7] = test system: Yellow fever virus; assay: Antiviral activity against Yellow fever virus infected in african green monkey Vero-76 cells after 3 days; assay type: functional, organism-based; details: Vero 76, 72 h
# [8] = Cytotoxicity against Yellow fever virus infected african green monkey Vero 76 cells after 3 days; assay type: cell-based; details: chlorocebus sabaeus, Vero 76 cells infected with Yellow fever virus
# [9] = test system: Hepatitis C virus; assay: Antiviral activity against HCV genotype 4a; assay type: functional, Hepacivirus hominis
# [10] = test system: Dengue virus; assay: Antiviral activity against Dengue virus infected in african green monkey Vero-76 cells after 3 days; assay type: functional, organism-based; details: Vero 76, 72 h
# [11] = Cytotoxicity against Dengue virus infected african green monkey Vero 76 cells after 3 days; assay type: cell-based; details: chlorocebus sabaeus, Vero 76 cells infected with Dengue virus
# [12] = test system: Hepatitis C virus; assay: Antiviral activity against HCV genotype 2a; assay type: functional, Hepacivirus hominis
# [13] = test system: Hepatitis C virus; assay: Antiviral activity against HCV genotype 1a; assay type: functional, Hepacivirus hominis; details: subtype 1a
# [14] = Half life in Sprague-Dawley rat at 11.2 mg/kg, po; assay type: ADME, organism-based; set-up: dose 11.2 mg/kg, route oral; details: in vivo
# [15] = Oral bioavailability in Sprague-Dawley rat at 11.2 mg/kg; assay type: ADME, organism-based; details: in vivo
# [16] = Half life in Sprague-Dawley rat at 2.8 mg/kg, iv as 30 mins infusion; assay type: ADME, organism-based; set-up: dose 2.8 mg/kg, route intravenous; details: in vivo
# [17] = Half life in beagle dog at 10 mg/kg, po; assay type: ADME, organism-based, Canis lupus familiaris; set-up: dose 10 mg/kg, route oral; details: in vivo
# [18] = Half life in beagle dog at 5 mg/kg, iv as 30 mins infusion; assay type: ADME, organism-based, Canis lupus familiaris; set-up: dose 5 mg/kg, route intravenous; details: in vivo
# [19] = Oral bioavailability in beagle dog at 10 mg/kg; assay type: ADME, organism-based, Canis lupus familiaris; details: in vivo
# [20] = molecular target: T1, Cytochrome P450 1A2 (Homo sapiens, UniProt P05177); assay: Inhibition of human liver CYP1A2; assay type: ADME
# T1 sequence (P05177 whole entry): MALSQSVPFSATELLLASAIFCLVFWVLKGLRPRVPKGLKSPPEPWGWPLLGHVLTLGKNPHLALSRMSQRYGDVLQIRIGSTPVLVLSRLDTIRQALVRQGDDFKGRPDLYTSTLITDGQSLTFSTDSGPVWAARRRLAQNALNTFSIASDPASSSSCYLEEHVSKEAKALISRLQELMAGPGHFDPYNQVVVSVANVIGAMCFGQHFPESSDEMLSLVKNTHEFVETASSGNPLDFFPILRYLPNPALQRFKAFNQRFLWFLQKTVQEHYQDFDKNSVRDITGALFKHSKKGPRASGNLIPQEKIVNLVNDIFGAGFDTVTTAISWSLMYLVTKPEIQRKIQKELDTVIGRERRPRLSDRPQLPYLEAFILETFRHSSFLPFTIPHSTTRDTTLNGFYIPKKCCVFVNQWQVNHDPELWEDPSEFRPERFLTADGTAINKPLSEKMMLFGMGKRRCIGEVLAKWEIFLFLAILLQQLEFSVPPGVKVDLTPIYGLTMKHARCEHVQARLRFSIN
# [21] = molecular target: Cytochrome P450 2C9 (Homo sapiens, UniProt P11712); assay: Inhibition of human liver CYP2C9; assay type: ADME
# Sequence of Cytochrome P450 2C9 (P11712 whole entry): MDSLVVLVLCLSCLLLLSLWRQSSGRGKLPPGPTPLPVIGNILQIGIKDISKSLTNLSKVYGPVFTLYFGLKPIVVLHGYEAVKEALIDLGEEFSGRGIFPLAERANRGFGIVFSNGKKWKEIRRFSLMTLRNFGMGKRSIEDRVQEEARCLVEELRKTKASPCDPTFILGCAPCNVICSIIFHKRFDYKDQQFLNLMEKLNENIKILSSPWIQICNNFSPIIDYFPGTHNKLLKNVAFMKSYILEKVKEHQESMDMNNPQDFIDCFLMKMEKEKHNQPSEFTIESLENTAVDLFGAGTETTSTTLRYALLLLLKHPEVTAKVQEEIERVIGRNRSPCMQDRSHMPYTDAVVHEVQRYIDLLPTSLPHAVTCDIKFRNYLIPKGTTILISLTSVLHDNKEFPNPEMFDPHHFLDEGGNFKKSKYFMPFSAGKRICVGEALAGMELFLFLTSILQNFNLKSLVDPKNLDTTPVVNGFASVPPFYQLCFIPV
# [22] = molecular target: Cytochrome P450 2C19 (Homo sapiens, UniProt P33261); assay: Inhibition of human liver CYP2C19; assay type: ADME
# Sequence of Cytochrome P450 2C19 (P33261 whole entry): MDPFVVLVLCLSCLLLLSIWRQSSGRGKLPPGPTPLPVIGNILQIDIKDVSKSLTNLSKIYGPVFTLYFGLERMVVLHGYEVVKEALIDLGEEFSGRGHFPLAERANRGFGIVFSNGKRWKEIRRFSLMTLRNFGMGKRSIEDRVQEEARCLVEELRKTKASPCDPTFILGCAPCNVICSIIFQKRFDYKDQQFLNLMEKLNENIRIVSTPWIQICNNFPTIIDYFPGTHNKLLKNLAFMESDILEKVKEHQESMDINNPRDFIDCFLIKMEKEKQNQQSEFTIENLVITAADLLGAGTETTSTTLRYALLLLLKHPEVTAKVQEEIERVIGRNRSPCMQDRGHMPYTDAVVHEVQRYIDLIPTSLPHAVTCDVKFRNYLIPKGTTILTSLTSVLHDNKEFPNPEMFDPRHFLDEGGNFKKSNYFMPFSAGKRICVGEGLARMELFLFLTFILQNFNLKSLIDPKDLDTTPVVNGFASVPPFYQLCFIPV
# [23] = molecular target: Cytochrome P450 2D6 (Homo sapiens, UniProt P10635); assay: Inhibition of human liver CYP2D6; assay type: ADME
# Sequence of Cytochrome P450 2D6 (P10635 whole entry): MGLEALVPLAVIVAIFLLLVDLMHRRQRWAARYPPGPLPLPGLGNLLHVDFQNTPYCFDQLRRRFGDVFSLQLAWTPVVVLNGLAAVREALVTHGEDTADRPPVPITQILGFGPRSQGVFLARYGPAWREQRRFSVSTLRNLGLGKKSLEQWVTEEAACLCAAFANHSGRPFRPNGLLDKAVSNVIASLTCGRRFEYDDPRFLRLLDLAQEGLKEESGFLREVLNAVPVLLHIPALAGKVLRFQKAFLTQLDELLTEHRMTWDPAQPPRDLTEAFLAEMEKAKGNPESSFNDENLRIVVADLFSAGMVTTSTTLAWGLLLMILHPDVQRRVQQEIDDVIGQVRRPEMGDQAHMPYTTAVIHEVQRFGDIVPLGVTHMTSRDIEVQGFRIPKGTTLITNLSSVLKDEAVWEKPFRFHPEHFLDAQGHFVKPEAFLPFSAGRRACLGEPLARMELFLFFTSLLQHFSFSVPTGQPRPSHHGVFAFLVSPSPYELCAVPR
# [24] = molecular target: Cytochrome P450 3A4 (Homo sapiens, UniProt P08684); assay: Inhibition of human liver CYP3A4; assay type: ADME
# Sequence of Cytochrome P450 3A4 (P08684 whole entry): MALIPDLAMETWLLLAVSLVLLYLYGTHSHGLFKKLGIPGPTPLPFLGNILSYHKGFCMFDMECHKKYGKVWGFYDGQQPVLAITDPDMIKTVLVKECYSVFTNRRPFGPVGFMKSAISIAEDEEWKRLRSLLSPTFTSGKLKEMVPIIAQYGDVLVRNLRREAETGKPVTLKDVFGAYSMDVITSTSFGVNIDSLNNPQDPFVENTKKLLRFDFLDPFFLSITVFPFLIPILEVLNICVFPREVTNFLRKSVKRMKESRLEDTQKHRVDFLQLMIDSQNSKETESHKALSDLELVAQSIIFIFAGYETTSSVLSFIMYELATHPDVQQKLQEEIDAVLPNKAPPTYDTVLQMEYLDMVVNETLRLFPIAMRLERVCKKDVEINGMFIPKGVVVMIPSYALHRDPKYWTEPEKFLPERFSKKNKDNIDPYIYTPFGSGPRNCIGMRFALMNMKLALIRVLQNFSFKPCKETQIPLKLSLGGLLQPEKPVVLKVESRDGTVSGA
# [25] = Metabolic stability in rat liver microsomes assessed as residual compound at 1 uM after 60 mins; assay type: ADME; details: read-out: Stability
# [26] = Metabolic stability in dog liver microsomes assessed as residual compound at 1 uM after 60 mins; assay type: ADME, Canis lupus familiaris; details: read-out: Stability
# [27] = Metabolic stability in human liver microsomes assessed as residual compound at 1 uM after 60 mins; assay type: ADME; details: read-out: Stability
# [28] = molecular target: Voltage-gated inwardly rectifying potassium channel KCNH2 (Homo sapiens, UniProt Q12809); assay: Binding affinity to human ERG at 3 to 30 uM
# Sequence of Voltage-gated inwardly rectifying potassium channel KCNH2 (Q12809 whole entry): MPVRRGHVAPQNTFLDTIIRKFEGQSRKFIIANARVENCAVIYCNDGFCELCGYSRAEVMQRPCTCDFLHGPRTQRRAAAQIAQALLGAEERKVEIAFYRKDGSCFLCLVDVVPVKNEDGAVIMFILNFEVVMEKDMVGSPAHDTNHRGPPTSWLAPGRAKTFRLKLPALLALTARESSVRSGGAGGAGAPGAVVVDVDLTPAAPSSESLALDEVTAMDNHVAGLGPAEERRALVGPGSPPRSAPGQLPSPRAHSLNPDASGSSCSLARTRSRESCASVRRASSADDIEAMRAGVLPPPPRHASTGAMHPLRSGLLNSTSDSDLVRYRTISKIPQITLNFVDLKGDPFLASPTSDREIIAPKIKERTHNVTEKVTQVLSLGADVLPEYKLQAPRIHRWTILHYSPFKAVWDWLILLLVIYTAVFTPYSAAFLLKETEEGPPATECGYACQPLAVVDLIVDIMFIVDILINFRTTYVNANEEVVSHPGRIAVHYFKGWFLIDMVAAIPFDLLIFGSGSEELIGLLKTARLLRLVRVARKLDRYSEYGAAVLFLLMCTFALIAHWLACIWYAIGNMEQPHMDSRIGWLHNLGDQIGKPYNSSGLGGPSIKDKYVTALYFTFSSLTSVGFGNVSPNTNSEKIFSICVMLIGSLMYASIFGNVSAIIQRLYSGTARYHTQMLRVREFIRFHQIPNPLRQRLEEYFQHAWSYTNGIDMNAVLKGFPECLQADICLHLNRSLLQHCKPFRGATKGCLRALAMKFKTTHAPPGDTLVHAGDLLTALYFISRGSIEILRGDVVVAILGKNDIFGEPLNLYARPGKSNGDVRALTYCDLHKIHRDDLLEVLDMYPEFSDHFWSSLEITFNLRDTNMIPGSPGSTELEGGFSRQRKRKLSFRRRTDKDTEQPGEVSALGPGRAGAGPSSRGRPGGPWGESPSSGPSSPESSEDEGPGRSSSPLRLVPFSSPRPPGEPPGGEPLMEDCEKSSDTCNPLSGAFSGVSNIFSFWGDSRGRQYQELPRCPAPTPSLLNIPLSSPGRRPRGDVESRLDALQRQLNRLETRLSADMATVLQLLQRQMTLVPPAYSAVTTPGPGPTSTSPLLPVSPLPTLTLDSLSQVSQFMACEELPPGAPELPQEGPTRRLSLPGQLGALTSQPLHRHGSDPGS
# [29] = Toxicity in ip dosed SHK mouse; assay type: organism-based; details: in vivo
# [30] = (§1) Toxicity in po dosed male SHK mouse; assay type: organism-based; details: male, SHK, in vivo
# [31] = test system: Mus musculus; assay: as §1; assay type: organism-based; details: in vivo
# [32] = (§2) Toxicity in po dosed female SHK mouse; assay type: organism-based; details: female, SHK, in vivo
# [33] = test system: Mus musculus; assay: as §2; assay type: organism-based; details: in vivo
# [34] = (§3) Toxicity in ip dosed male Wistar rat; assay type: organism-based; details: male, Wistar, in vivo
# [35] = test system: Rattus norvegicus; assay: as §3; assay type: organism-based; details: in vivo
# [36] = (§4) Toxicity in ip dosed female Wistar rat; assay type: organism-based; details: female, Wistar, in vivo
# [37] = test system: Rattus norvegicus; assay: as §4; assay type: organism-based; details: in vivo
# [38] = (§5) Toxicity in ip dosed Wistar rat; assay type: organism-based; details: Wistar, in vivo
# [39] = test system: Rattus norvegicus; assay: as §5; assay type: organism-based; details: in vivo
# [40] = species: Canis familiaris; assay: Toxicity in dog by 6-weeks study; assay type: organism-based, Canis lupus familiaris; details: in vivo, 1008 h
# [41] = species: Rattus norvegicus; assay: Toxicity in rat by 12-weeks study; assay type: organism-based; details: in vivo, 2016 h
# [42] = species: Rattus norvegicus; assay: Toxicity in male rat assessed as adverse effect on reproductive organ; assay type: organism-based; details: in vivo
# [43] = species: Rattus norvegicus; assay: Toxicity in female rat assessed as adverse effect on reproductive organ; assay type: organism-based; details: in vivo
# [44] = test system: Salmonella typhimurium; assay: Mutagenicity in Salmonella typhimurium TA98 assessed as increase in number of colonies by Ames test relative to control; assay type: toxicity, organism-based; details: salmonella enterica subsp. enterica serovar typhimurium
# [45] = test system: Salmonella typhimurium; assay: Mutagenicity in Salmonella typhimurium TA100 assessed as increase in number of colonies by Ames test relative to control; assay type: toxicity, organism-based; details: salmonella enterica subsp. enterica serovar typhimurium
# [46] = test system: Salmonella typhimurium; assay: Mutagenicity in Salmonella typhimurium TA1535 assessed as increase in number of colonies by Ames test relative to control; assay type: toxicity, organism-based; details: salmonella enterica subsp. enterica serovar typhimurium
# [47] = test system: Salmonella typhimurium; assay: Mutagenicity in Salmonella typhimurium TA1537 assessed as increase in number of colonies by Ames test relative to control; assay type: toxicity, organism-based; details: salmonella enterica subsp. enterica serovar typhimurium
# [48] = Lipophilicity, log P of the compound; assay type: physicochemical; details: octanol/water
# [49] = Lipophilicity, log D of the compound at pH 7.4; assay type: physicochemical; details: buffer
# [50] = test system: Hepatitis C virus; assay: Antiviral activity against HCV genotype 1b infected in human Huh7 cells after 3 days by cell-based replicon assay in presence of 10% fetal bovine serum; assay type: functional, Hepacivirus hominis; details: Huh-7, 72 h
# [51] = test system: Hepatitis C virus; assay: Antiviral activity against HCV genotype 1b infected in human Huh7 cells after 3 days by cell-based replicon assay in presence of 40% normal human serum; assay type: functional, Hepacivirus hominis; details: Huh-7, 72 h
# [52] = Cytotoxicity against human HuH7 cells; assay type: cell-based, Huh-7
# [53] = Therapeutic index, ratio of CC50 for human Huh7 cells to EC50 for HCV genotype 1b infected in human Huh7 cells; assay type: cell-based, Huh-7; details: read-out: Ratio CC50/EC50
# [54] = Solubility of the compound in water at pH 2; assay type: physicochemical
structure (smiles),measurement,setting,value
"COC(=O)N[C@H](C(=O)N1CCCC1c1ncc(C#CC#Cc2ccc(-c3cnc(C4CCCN4C(=O)[C@@H](NC(=O)OC)C(C)C)[nH]3)cc2)[nH]1)C(C)C.Cl (single isomer, unassigned; 13a)",solubility,[1],2200 µM
same,solubility,[2],433 µM
same,solubility,[3],≥ 10 µM
same,solubility,[4],≥ 10 µM
same,EC50,[5],> 26.3 µM
same,CC50 at 72 h,[6],26.3 µM
same,EC50,[7],> 23.5 µM
same,CC50 at 72 h,[8],23.5 µM
same,EC50,[9],6.5 pM
same,EC50,[10],> 28.4 µM
same,CC50 at 72 h,[11],28.4 µM
same,EC50,[12],51 pM
same,EC50,[13],59 pM
same,half-life,[14],3 h
same,bioavailability,[15],65%
same,half-life,[16],3.4 h
same,half-life,[17],4.5 h
same,half-life,[18],4.9 h
same,bioavailability,[19],58%
same,IC50,[20],> 10 µM
same,IC50,[21],> 10 µM
same,IC50,[22],> 10 µM
same,IC50,[23],> 10 µM
same,IC50,[24],> 10 µM
same,"remaining at 1 h, 1 µM",[25],70.8%
same,"remaining at 1 h, 1 µM",[26],84.7%
same,"remaining at 1 h, 1 µM",[27],81.5%
same,Activity,[28],< 10%
same,LD50,[29],> 1600 mg/kg
same,LD50,[30],3440 mg/kg
same,LD10,[31],2320.3 mg/kg
same,LD16,[31],2565.4 mg/kg
same,LD84,[31],4305.3 mg/kg
same,LD50,[32],3010 mg/kg
same,LD10,[33],1160.1 mg/kg
same,LD16,[33],1565.7 mg/kg
same,LD84,[33],4445.3 mg/kg
same,LD50,[34],349 mg/kg
same,LD10,[35],228.6 mg/kg
same,LD50,[36],412 mg/kg
same,LD10,[37],228.4 mg/kg
same,LD50,[38],395 mg/kg
same,LD10,[39],234.2 mg/kg
same,Activity,[40],Non-toxic
same,LD84,[40],485.6 mg/kg
same,Activity,[41],Non-toxic
same,LD84,[41],651.3 mg/kg
same,Activity,[42],Non-toxic
same,LD84,[42],593.2 mg/kg
same,Activity,[43],Non-toxic
same,Activity,[44],Non-toxic
same,Activity,[45],Non-toxic
same,Activity,[46],Non-toxic
same,Activity,[47],Non-toxic
same,logP,[48],4.99
same,logD,[49],4.46
same,EC50,[50],3.4 pM
same,EC50,[51],21 pM
same,CC50,[52],17.3 µM
same,selectivity ratio,[53],> 5000
same,solubility,[54],208 µM
